Laboratory results taken from PubChem BioAssay AID256 (DTP/NCI, 2004).
Where “and” joins values, the source holds several entries; their conditions need not be identical. Equal entries are not always repeated. Inconclusive results and toxic doses are left out. Rule for the calls: active = survival T/C of 150% or more; inactive = T/C below 125% in these data.

System: CD2F1 mice, L1210 leukemia ip, survival T/C
Test: NCI In Vivo Anticancer Drug Screen. Data for tumor model L1210 Leukemia (intraperitoneal) in CD2F1 (CDF1) mice
Conditions: endpoint: mean survival time, higher = longer survival
How it was run: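 Ratio T/C, where T is the treated-group value and C the vehicle-dosed control value, from mice implanted with a transplantable tumor.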

[1] = dose: 25.0 mg/kg/injection, schedule: Q01DX009 (ip), vehicle: saline
[2] = dose: 50.0 mg/kg/injection, schedule: Q01DX009 (ip), vehicle: saline
[3] = dose: 100.0 mg/kg/injection, schedule: Q01DX009 (ip), vehicle: saline
[4] = dose: 200.0 mg/kg/injection, schedule: Q01DX009 (ip), vehicle: saline
[5] = dose: 400.0 mg/kg/injection, schedule: Q01DX009 (ip), vehicle: saline
[6] = dose: 100.0 mg/kg/injection, schedule: Q04DX003 (ip), vehicle: saline
[7] = dose: 200.0 mg/kg/injection, schedule: Q04DX003 (ip), vehicle: saline
[8] = dose: 400.0 mg/kg/injection, schedule: Q04DX003 (ip), vehicle: saline
[9] = dose: 100.0 mg/kg/injection, schedule: Q01DX009 (ip), vehicle: saline with Tween-80
[10] = dose: 200.0 mg/kg/injection, schedule: Q01DX009 (ip), vehicle: saline with Tween-80
[11] = dose: 400.0 mg/kg/injection, schedule: Q01DX009 (ip), vehicle: saline with Tween-80
[12] = dose: 100.0 mg/kg/injection, schedule: Q01DX001 (ip), vehicle: saline with Tween-80
[13] = dose: 100.0 mg/kg/injection, schedule: Q04DX003 (ip), vehicle: saline with Tween-80
[14] = dose: 200.0 mg/kg/injection, schedule: Q01DX001 (ip), vehicle: saline with Tween-80
[15] = dose: 200.0 mg/kg/injection, schedule: Q04DX003 (ip), vehicle: saline with Tween-80
[16] = dose: 400.0 mg/kg/injection, schedule: Q01DX001 (ip), vehicle: saline with Tween-80
[17] = dose: 400.0 mg/kg/injection, schedule: Q04DX003 (ip), vehicle: saline with Tween-80

Measured: T/C

Nc1nc(N)c2c(n1)NCN(CCc1ccc(Cl)cc1Cl)C2
inactive: dose: 0.75 mg/kg/injection, schedule: Q01DX009 (ip), vehicle: distilled water + Tween-80 100 % of control | dose: 1.5 mg/kg/injection, schedule: Q01DX009 (ip), vehicle: distilled water + Tween-80 102 % of control | dose: 3.0 mg/kg/injection, schedule: Q01DX009 (ip), vehicle: distilled water + Tween-80 100 % of control | dose: 6.0 mg/kg/injection, schedule: Q01DX009 (ip), vehicle: distilled water + Tween-80 102 % of control | dose: 12.0 mg/kg/injection, schedule: Q01DX009 (ip), vehicle: distilled water + Tween-80 96 % of control | dose: 24.0 mg/kg/injection, schedule: Q01DX009 (ip), vehicle: distilled water + Tween-80 98 % of control | dose: 37.5 mg/kg/injection, schedule: Q01DX009 (ip), vehicle: distilled water + Tween-80 96 % of control | dose: 75.0 mg/kg/injection, schedule: Q01DX009 (ip), vehicle: distilled water + Tween-80 94 % of control

N\C([S-])=N/N=C\C(=N/N=C(\N)[S-])C(O)C(O)C(O)CO.[Ni+2] (stereo not drawn)
inactive: dose: 80.5 mg/kg/injection, schedule: Q01DX009 (ip), vehicle: saline with Tween-80 102 % of control | dose: 161.0 mg/kg/injection, schedule: Q01DX009 (ip), vehicle: saline with Tween-80 95 % of control

CC(=O)NCCCCCCNC(C)=O
inactive: [1] 96 % of control | [2] 100 % of control | [3] 100 % of control | [4] 94 % of control | [5] 100 % of control | dose: 800.0 mg/kg/injection, schedule: Q01DX009 (ip), vehicle: saline 93 % of control

C=CCS(=O)(=O)O
inactive: dose: 100.0 mg/kg/injection, schedule: Q01DX009 (ip), vehicle: saline sonified 96 % of control | [6] 100 % of control | dose: 200.0 mg/kg/injection, schedule: Q01DX009 (ip), vehicle: saline sonified 96 % of control | [7] 107 % of control | dose: 400.0 mg/kg/injection, schedule: Q01DX009 (ip), vehicle: saline sonified 96 % of control | [8] 107 % of control

CC1=C2CC3CCC(C)C2(CC1)C3(C)C (stereo not drawn)
inactive: dose: 100.0 mg/kg/injection, schedule: Q04DX002 (ip), vehicle: Klucel (hydroxypropylcellulose) (HPC) 111 % of control | [6] 96 % of control | dose: 200.0 mg/kg/injection, schedule: Q04DX002 (ip), vehicle: Klucel (hydroxypropylcellulose) (HPC) 96 % of control | [7] 98 % of control | dose: 400.0 mg/kg/injection, schedule: Q04DX002 (ip), vehicle: Klucel (hydroxypropylcellulose) (HPC) 96 % of control | [8] 106 % of control

NS(=O)(=O)c1ccc(NC(=O)/C=C/C(=O)O)cc1
inactive: [6] 101 % of control | [7] 97 % of control | [8] 97 % of control

O=c1c2ccccc2sc2c1ccc1c2ccc2c(=O)c3ccccc3sc21
inactive: dose: 50.0 mg/kg/injection, schedule: Q01DX009 (ip), vehicle: Klucel (hydroxypropylcellulose) (HPC) 104 % of control | dose: 100.0 mg/kg/injection, schedule: Q01DX009 (ip), vehicle: Klucel (hydroxypropylcellulose) (HPC) 98 % of control | dose: 200.0 mg/kg/injection, schedule: Q01DX009 (ip), vehicle: Klucel (hydroxypropylcellulose) (HPC) 98 % of control

C=C(C)Cc1cc(C(CC)C(CC)c2ccc(O)c(CC(=C)C)c2)ccc1O (stereo not drawn)
inactive: [9] 100 % of control | [6] 96 % of control | [10] 98 % of control | [7] 93 % of control | [11] 100 % of control | [8] 89 % of control

COc1ccccc1NC(=O)NC1C(OC(C)=O)OC(COC(C)=O)C(OC(C)=O)C1OC(C)=O (stereo not drawn)
inactive: dose: 12.5 mg/kg/injection, schedule: Q01DX009 (ip), vehicle: other 93 % of control | dose: 25.0 mg/kg/injection, schedule: Q01DX009 (ip), vehicle: other 94 % of control | dose: 50.0 mg/kg/injection, schedule: Q01DX009 (ip), vehicle: other 98 % of control | dose: 100.0 mg/kg/injection, schedule: Q01DX009 (ip), vehicle: other 94 % of control | dose: 200.0 mg/kg/injection, schedule: Q01DX009 (ip), vehicle: other 93 % of control

CCCCCCCCCCCCCCN1CCCN(CCCCCCCCCCCCCC)CC1
inactive: dose: 50.0 mg/kg/injection, schedule: Q04DX003 (ip), vehicle: saline with Tween-80 93 % of control | [12] 94 % of control | [9] 96 % of control and 101 % of control | dose: 100.0 mg/kg/injection, schedule: Q04DX002 (ip), vehicle: saline with Tween-80 96 % of control | [13] 93 % of control and 101 % of control | [14] 94 % of control | [10] 98 % of control and 104 % of control | dose: 200.0 mg/kg/injection, schedule: Q04DX002 (ip), vehicle: saline with Tween-80 93 % of control and 97 % of control | [15] 98 % of control and 100 % of control | [16] 101 % of control | [11] 93 % of control and 95 % of control | dose: 400.0 mg/kg/injection, schedule: Q04DX002 (ip), vehicle: saline with Tween-80 93 % of control and 96 % of control | [17] 98 % of control

COc1ccc2nc3c(Cl)cccc3c(Oc3ccccc3)c2c1
inactive: [12] 94 % of control | [14] 92 % of control | [16] 101 % of control

Cc1ccc(-n2c(O)c(C=N)c(=O)n(-c3ccc(C)cc3)c2=O)cc1
inactive: [13] 95 % of control | [15] 95 % of control | [17] 97 % of control

OC12C3CC4C5C3C3(Cl)C(Cl)(Cl)C5(Cl)C(Cl)(C41)C23Cl (stereo not drawn)
inactive: dose: 1.25 mg/kg/injection, schedule: Q01DX001 (ip), vehicle: other 107 % of control | dose: 2.5 mg/kg/injection, schedule: Q01DX001 (ip), vehicle: other 103 % of control | dose: 5.0 mg/kg/injection, schedule: Q01DX001 (ip), vehicle: other 100 % of control

CCOC(=O)C1=C(C)NC(C)=C(C(=O)OCC)C1c1ccc(Cl)cc1
inactive: [9] 96 % of control | [10] 100 % of control | [11] 96 % of control

CCCCN1C(=O)C(=O)N(c2cc(OC)ccc2OC)C1=O
inactive: dose: 50.0 mg/kg/injection, schedule: Q01DX009 (ip), vehicle: saline with Tween-80 86 % of control | [9] 90 % of control | [10] 86 % of control

N=C(N)SC1c2ccccc2-c2ccc(N)cc21 (stereo not drawn)
inactive: [1] 107 % of control | [2] 102 % of control | [3] 109 % of control | [13] 103 % of control

NC(CO)(CO)CO
inactive: [3] 98 % of control | [4] 93 % of control | [5] 100 % of control

CC(C)C1CCC2=C(CCC3C(C)(C(=O)O)CCCC23C)C1 (stereo not drawn)
inactive: [13] 95 % of control | [15] 88 % of control | [17] 89 % of control

C1=CCC2C3C=CC(CC3)C2C1 (stereo not drawn)
inactive: dose: 75.0 mg/kg/injection, schedule: Q01DX001 (ip), vehicle: saline 86 % of control | dose: 150.0 mg/kg/injection, schedule: Q01DX001 (ip), vehicle: saline 95 % of control | dose: 300.0 mg/kg/injection, schedule: Q01DX001 (ip), vehicle: saline 97 % of control

OCC1OC(Nc2ncnc3nc[nH]c23)C(O)C1O (stereo not drawn)
inactive: [12] 108 % of control | [9] 96 % of control | [14] 94 % of control | [10] 108 % of control | [16] 92 % of control | [11] 100 % of control

O=c1[nH]c(-c2ccccc2)c(N=Nc2ccccc2)c(=O)[nH]1
inactive: [12] 89 % of control | [14] 96 % of control | [16] 102 % of control

Cc1ccccc1NCS(=O)(=O)O
inactive: [6] 101 % of control | [7] 104 % of control | [8] 98 % of control
